Here are results for 10 molecules from ChEMBL document CHEMBL6182904, “Discovery of a novel molecular glue degrader targeting GSPT1/2 with a non-IMiD-based CRBN binder” (Eur J Med Chem, 2025).

The source made the active and inactive calls. The calls are words filed in the database; no cut-off is given here. Where only a bound is given, the exact number is not on record here.

The target of data set [1] is Protein cereblon/Eukaryotic peptide chain release factor GTP-binding subunit ERF3A (Homo sapiens, UniProt P15170+Q96SW2). Kind of data set: Molecular glue activity at LgBiT tagged CRBN/SmBiT tagged GSPT1 (unknown origin) transfected with HEK293T cells assessed as ternary complex formation incubated for 1 hr by Nano-Glo luminescence analysis. It is filed as cell-based.

Data set [2] addresses Protein cereblon (Homo sapiens) (UniProt Q96SW2). The data set is described as follows: Binding affinity to CRBN (unknown origin) at 10 uM relative to control.
The target in data set [3] is T1, Protein cereblon/Eukaryotic peptide chain release factor GTP-binding subunit ERF3A (Homo sapiens, UniProt Q96SW2+P15170). Kind of data set: Molecular glue activity at human full length wild type CRBN/Hibit tagged GSPT1 in human Jurkat cells assessed as induction of GSPT1 degradation. Type of data set: cell-based.
Target sequence in this assay (Q96SW2 whole entry): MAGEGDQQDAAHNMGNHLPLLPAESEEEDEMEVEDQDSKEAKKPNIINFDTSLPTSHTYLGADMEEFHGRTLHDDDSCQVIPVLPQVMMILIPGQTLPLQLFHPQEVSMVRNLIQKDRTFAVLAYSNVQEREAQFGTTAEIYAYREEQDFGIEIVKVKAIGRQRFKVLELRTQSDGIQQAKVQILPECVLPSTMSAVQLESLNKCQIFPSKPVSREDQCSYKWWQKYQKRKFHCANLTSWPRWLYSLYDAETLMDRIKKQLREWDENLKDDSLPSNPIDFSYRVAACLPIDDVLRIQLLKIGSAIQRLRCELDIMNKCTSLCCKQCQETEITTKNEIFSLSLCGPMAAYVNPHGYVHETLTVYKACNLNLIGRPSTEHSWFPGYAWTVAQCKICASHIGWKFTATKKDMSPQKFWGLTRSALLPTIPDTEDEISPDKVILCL
Target sequence in this assay (P15170 whole entry): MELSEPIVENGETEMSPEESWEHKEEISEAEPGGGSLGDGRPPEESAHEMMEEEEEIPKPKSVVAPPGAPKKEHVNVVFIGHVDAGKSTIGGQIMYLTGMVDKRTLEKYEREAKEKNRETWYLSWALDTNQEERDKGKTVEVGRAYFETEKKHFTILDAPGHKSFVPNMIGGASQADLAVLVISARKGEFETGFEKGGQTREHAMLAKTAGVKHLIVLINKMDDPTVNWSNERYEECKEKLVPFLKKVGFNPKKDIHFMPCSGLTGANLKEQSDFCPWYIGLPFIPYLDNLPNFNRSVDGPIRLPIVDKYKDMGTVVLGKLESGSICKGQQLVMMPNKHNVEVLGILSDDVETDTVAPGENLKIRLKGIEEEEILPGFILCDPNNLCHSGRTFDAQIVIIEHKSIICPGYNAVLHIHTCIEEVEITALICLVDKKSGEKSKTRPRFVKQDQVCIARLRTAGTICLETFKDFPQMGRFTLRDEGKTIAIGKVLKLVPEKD
A short description of data set [4]: Cytotoxicity against HEK293T cells assessed as cell growth inhibition measured after 72 hrs by CellTiter-Glo assay. Type of data set: toxicity, cell-based, HEK-293T. Conditions: human. On the technique in general: ATP-based viability assays read luminescence as a measure of living cells.
Data set [5] can be described thus: Cytotoxicity against HEK293T cells assessed as cell growth inhibition measured after 72 hrs in presence of MLN4924 by CellTiter-Glo assay. Type of data set: toxicity, cell-based, HEK-293T. Conditions: human.
Data set [6] deals with Jurkat. Kind of data set: Cytotoxicity against human Jurkat cells assessed as cell growth inhibition measured after 72 hrs by CellTiter-Glo assay. Type of data set: functional.
The nature of data set [7]: Cytotoxicity against human Jurkat cells assessed as cell growth inhibition measured after 72 hrs in presence of MLN4924 by CellTiter-Glo assay. It is filed as toxicity, cell-based.
Another data set deals with MCF7. The data set is described as follows: Selectivity ratio of GI50 for cytotoxicity against human MCF7 cells assessed as cell growth inhibition measured after 72 hrs in presence of MLN4924 to GI50 for cytotoxicity against human MCF7 cells assessed as cell growth inhibition measured after 72 hrs. Type of data set: functional.
The nature of data set [8]: Selectivity ratio of GI50 for cytotoxicity against human HCT-116 cells assessed as cell growth inhibition measured after 72 hrs in presence of MLN4924 to GI50 for cytotoxicity against human HCT-116 cells assessed as cell growth inhibition measured after 72 hrs. It is filed as functional.
A short description of data set [9]: Selectivity ratio of GI50 for cytotoxicity against human MIA PaCa-2 cells assessed as cell growth inhibition measured after 72 hrs in presence of MLN4924 to GI50 for cytotoxicity against human MIA PaCa-2 cells assessed as cell growth inhibition measured after 72 hrs. Type of data set: functional.
The target in data set [10] is T1, Protein cereblon/Eukaryotic peptide chain release factor GTP-binding subunit ERF3A. Kind of data set: Molecular glue activity at full length human wild type CRBN/HiBit tagged GSPT1 in HEK293T cells assessed as induction of GSPT1 degradation at 1 uM incubated for 12 hrs by Western blot analysis. It is filed as cell-based.
Target sequence in this assay (P15170 whole entry, looked up): as the sequence (P15170 whole entry) above
Target sequence in this assay (Q96SW2 whole entry, looked up): as the sequence (Q96SW2 whole entry) above
For data set [11] the target is unchanged. The data set is described as follows: Molecular glue activity at full length human wild type CRBN/HiBit tagged GSPT1 in HEK293T cells assessed as induction of GSPT1 degradation at 0.1 to 10 uM incubated for 6 hrs by Western blot analysis. Type of data set: cell-based. Conditions: dose 0.1-10 µM.
Target sequence in this assay (P15170 whole entry, looked up): as the sequence (P15170 whole entry) above
Target sequence in this assay (Q96SW2 whole entry, looked up): as the sequence (Q96SW2 whole entry) above
Data set [12] has the same target. The data set is described as follows: Molecular glue activity at full length human wild type CRBN/HiBit tagged GSPT1 in human KG-1 cells assessed as induction of GSPT1 degradation at 0.1 to 10 uM incubated for 6 hrs by Western blot analysis. Type of data set: cell-based. Conditions: dose 0.1-10 µM.
Target sequence in this assay (P15170 whole entry, looked up): as the sequence (P15170 whole entry) above
Target sequence in this assay (Q96SW2 whole entry, looked up): as the sequence (Q96SW2 whole entry) above
Data set [13] shares this target. The data set is described as follows: Molecular glue activity at full length wild type human CRBN/HiBit tagged GSPT1 in human Jurkat cells assessed as induction of GSPT1 degradation at 3 uM incubated for 6 hrs by Western blot analysis. It is filed as cell-based. Background: The HiBiT peptide binds its large partner to form an active luciferase.
Target sequence in this assay (P15170 whole entry, looked up): as the sequence (P15170 whole entry) above
Target sequence in this assay (Q96SW2 whole entry, looked up): as the sequence (Q96SW2 whole entry) above
Data set [14] deals with T2, Protein cereblon/Eukaryotic peptide chain release factor GTP-binding subunit ERF3B (Homo sapiens, UniProt Q96SW2+Q8IYD1). Kind of data set: Molecular glue activity at full length human wild type CRBN/GSPT2 in human Jurkat cells assessed as induction of GSPT2 degradation at 3 uM incubated for 6 hrs by Western blot analysis. Type of data set: cell-based. For orientation: Immunoblotting shows a protein as a band on a membrane.
Target sequence in this assay (Q8IYD1 whole entry, looked up): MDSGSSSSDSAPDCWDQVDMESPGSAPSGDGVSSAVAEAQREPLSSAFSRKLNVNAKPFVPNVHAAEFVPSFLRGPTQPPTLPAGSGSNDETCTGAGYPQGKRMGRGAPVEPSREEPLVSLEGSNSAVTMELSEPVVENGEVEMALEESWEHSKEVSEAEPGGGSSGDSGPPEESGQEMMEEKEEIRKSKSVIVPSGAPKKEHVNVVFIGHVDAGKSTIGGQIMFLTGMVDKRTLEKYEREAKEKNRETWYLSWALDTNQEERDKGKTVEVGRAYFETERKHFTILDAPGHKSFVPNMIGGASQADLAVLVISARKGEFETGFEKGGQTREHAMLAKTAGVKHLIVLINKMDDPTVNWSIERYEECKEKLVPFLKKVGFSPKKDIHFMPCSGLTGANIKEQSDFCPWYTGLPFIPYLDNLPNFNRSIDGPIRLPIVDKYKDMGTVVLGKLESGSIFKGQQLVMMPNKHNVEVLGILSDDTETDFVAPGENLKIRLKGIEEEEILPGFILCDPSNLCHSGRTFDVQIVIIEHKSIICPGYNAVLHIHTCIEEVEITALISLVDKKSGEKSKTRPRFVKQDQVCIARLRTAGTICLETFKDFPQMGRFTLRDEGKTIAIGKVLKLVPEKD
Target sequence in this assay (Q96SW2 whole entry, looked up): as the sequence (Q96SW2 whole entry) above

Data set [15] deals with T1, Protein cereblon/Eukaryotic peptide chain release factor GTP-binding subunit ERF3A. Kind of data set: Molecular glue activity at full length human wild type CRBN/HiBit tagged GSPT1 in human Jurkat cells assessed as induction of GSPT1 degradation incubated for 6 hrs by Western blot analysis. Type of data set: cell-based.
Target sequence in this assay (Q96SW2 whole entry): as above
Target sequence in this assay (P15170 whole entry): as the sequence (P15170 whole entry) above
Data set [16] deals with T2, Protein cereblon/Eukaryotic peptide chain release factor GTP-binding subunit ERF3B. The data set is described as follows: Molecular glue activity at full length human wild type CRBN/GSPT2 in human Jurkat cells assessed as induction of GSPT2 degradation incubated for 6 hrs by Western blot analysis. Type of data set: cell-based.
The target of data set [17] is T1, Protein cereblon/Eukaryotic peptide chain release factor GTP-binding subunit ERF3A. The data set is described as follows: Molecular glue activity at full length wild type human CRBN/HiBit tagged GSPT1 in human Jurkat cells harbouring cullin4 knockdown assessed as induction of GSPT1 degradation at 1 uM incubated for 6 hrs by Western blot analysis. Type of data set: cell-based.
Target sequence in this assay (P15170 whole entry, looked up): as the sequence (P15170 whole entry) above
Target sequence in this assay (Q96SW2 whole entry, looked up): as the sequence (Q96SW2 whole entry) above

Data set [18] relates to Jurkat. Kind of data set: Cytotoxicity against human Jurkat cells harbouring cullin4 knockdown assessed as cell growth inhibition measured after 72 hrs by CellTiter-Glo assay. It is filed as functional.
Data set [19] addresses T1, Protein cereblon/Eukaryotic peptide chain release factor GTP-binding subunit ERF3A. The data set is described as follows: Molecular glue activity at full length human wild type CRBN/HiBit tagged GSPT1 in human Jurkat cells assessed as induction of GSPT1 degradation at 0.1 to 10 uM incubated for 6 hrs in presence of bortezomib by Western blot analysis. Type of data set: cell-based. Conditions: dose 0.1-10 µM.
Target sequence in this assay (P15170 whole entry, looked up): as the sequence (P15170 whole entry) above
Target sequence in this assay (Q96SW2 whole entry, looked up): as the sequence (Q96SW2 whole entry) above

The target in data set [20] is T2, Protein cereblon/Eukaryotic peptide chain release factor GTP-binding subunit ERF3B. Kind of data set: Molecular glue activity at full length human wild type CRBN/HiBit tagged GSPT2 in human Jurkat cells assessed as induction of GSPT2 degradation at 0.1 to 10 uM incubated for 6 hrs in presence of bortezomib by Western blot analysis. Type of data set: cell-based. Conditions: dose 0.1-10 µM.
Target sequence in this assay (Q8IYD1 whole entry, looked up): as the sequence (Q8IYD1 whole entry, looked up) above
Target sequence in this assay (Q96SW2 whole entry, looked up): as the sequence (Q96SW2 whole entry) above

Data set [21] addresses Protein cereblon (Homo sapiens) (UniProt Q96SW2). The data set is described as follows: Binding affinity to CRBN in HEK293T cells harbouring DDB1/Nanoluc assessed as decrease in BRET ratio incubated for 2 hrs NanoBRET engagement assay. It is filed as cell-based. Conditions: dose 1-30 µM.
Data set [22] addresses T1, Protein cereblon/Eukaryotic peptide chain release factor GTP-binding subunit ERF3A. Kind of data set: Molecular glue activity at full length human wild type CRBN/HiBit tagged GSPT1 in HEK293T cells assessed as induction of GSPT1 degradation incubated for 6 hrs by Nano-Glo luminescence assay. Type of data set: cell-based.
Target sequence in this assay (Q96SW2 whole entry): as above
Target sequence in this assay (P15170 whole entry): as the sequence (P15170 whole entry) above
For data set [23] the target is unchanged. Kind of data set: Molecular glue activity at full length human wild type CRBN/HiBit tagged GSPT1 in HEK293T cells assessed as induction of GSPT1 degradation incubated for 6 hrs in presence of pomalidomide by Nano-Glo luminescence assay. Type of data set: cell-based.
Target sequence in this assay (Q96SW2 whole entry): as the sequence (Q96SW2 whole entry) above
Target sequence in this assay (P15170 whole entry): as the sequence (P15170 whole entry) above
Data set [24] shares this target. Kind of data set: Molecular glue activity at full length human wild type CRBN/HiBit tagged GSPT1 in HEK293T cells assessed as induction of GSPT1 degradation at 10 uM incubated for 6 hrs by Nano-Glo luminescence assay relative to control. Type of data set: cell-based.
Data set [25] shares this target. Kind of data set: Molecular glue activity at full length human wild type CRBN/HiBit tagged GSPT1 in HEK293T cells assessed as induction of GSPT1 degradation at 10 uM incubated for 6 hrs in presence of pomalidomide by Nano-Glo luminescence assay relative to control. It is filed as cell-based.
Data set [26] concerns the target Protein cereblon/Eukaryotic peptide chain release factor GTP-binding subunit ERF3A (Mus musculus) (UniProt Q8C7D2+Q8R050). The data set is described as follows: Molecular glue activity at Wild type CRBN/GSPT1 in mouse MEF cells harbouring CRBN knockout assessed as induction of GSPT1 degradation at 0.1 to 10 uM incubated for 24 hrs by Western blot analysis. Type of data set: cell-based. Conditions: dose 0.1-10 µM.

In another data set the test system is MEF. The data set is described as follows: Molecular glue activity at CRBN W386A mutant/GSPT1 in mouse MEF cells harbouring CRBN knockout assessed as induction of GSPT1 degradation at 0.1 to 10 uM incubated for 24 hrs by Western blot analysis. Type of data set: cell-based. Conditions: dose 0.1-10 µM.
Data set [27] addresses T1, Protein cereblon/Eukaryotic peptide chain release factor GTP-binding subunit ERF3A. The data set is described as follows: Molecular glue activity at full length wild type CRBN/HiBit tagged GSPT1 in human Jurkat cells harbouring wildtype CRBN assessed as induction of GSPT1 degradation at 0.1 to 10 uM incubated for 6 hrs by Western blot analysis. It is filed as cell-based. Conditions: dose 0.1-10 µM.

For data set [28] the target is unchanged. Kind of data set: Molecular glue activity at full length wild type CRBN/HiBit tagged GSPT1 in human Jurkat cells harbouring CRBN knockout assessed as induction of GSPT1 degradation at 0.1 to 10 uM incubated for 6 hrs by Western blot analysis. It is filed as cell-based. Conditions: dose 0.1-10 µM.
Data set [29] concerns the target T2, Protein cereblon/Eukaryotic peptide chain release factor GTP-binding subunit ERF3B. The data set is described as follows: Molecular glue activity at full length wild type CRBN/HiBit tagged GSPT2 in human Jurkat cells harbouring wildtype CRBN assessed as induction of GSPT2 degradation at 0.1 to 10 uM incubated for 6 hrs by Western blot analysis. Type of data set: cell-based. Conditions: dose 0.1-10 µM.
Target sequence in this assay (Q8IYD1 whole entry, looked up): as the sequence (Q8IYD1 whole entry, looked up) above
Target sequence in this assay (Q96SW2 whole entry, looked up): as the sequence (Q96SW2 whole entry) above

For data set [30] the target is unchanged. The data set is described as follows: Molecular glue activity at full length wild type CRBN/HiBit tagged GSPT2 in human Jurkat cells harbouring CRBN knockout assessed as induction of GSPT2 degradation at 0.1 to 10 uM incubated for 6 hrs by Western blot analysis. Conditions: dose 0.1-10 µM. Type of data set: cell-based.
Target sequence in this assay (Q8IYD1 whole entry, looked up): as the sequence (Q8IYD1 whole entry, looked up) above
Target sequence in this assay (Q96SW2 whole entry, looked up): as the sequence (Q96SW2 whole entry) above
Data set [31] deals with T1, Protein cereblon/Eukaryotic peptide chain release factor GTP-binding subunit ERF3A. The data set is described as follows: Molecular glue activity at human full length wildtype CRBN/HiBiT tagged GSPT1 in human MIA PaCa-2 cells transfected with CRBN-TurboID-V5 assessed as ternary complex formation at 1 uM preincubated for 4 hrs followed by bortezomib addition and measured after 2 hrs by TurboID analysis. It is filed as cell-based. Conditions: time 6.0 hrs.

In data set [32] the target is T2, Protein cereblon/Eukaryotic peptide chain release factor GTP-binding subunit ERF3B. Kind of data set: Molecular glue activity at human full length wildtype CRBN/HiBiT tagged GSPT2 in human MIA PaCa-2 cells transfected with CRBN-TurboID-V5 assessed as ternary complex formation at 1 uM preincubated for 4 hrs followed by bortezomib addition and measured after 2 hrs by TurboID analysis. It is filed as cell-based. Conditions: time 6.0 hrs.
Target sequence in this assay (Q8IYD1 whole entry, looked up): as the sequence (Q8IYD1 whole entry, looked up) above
Target sequence in this assay (Q96SW2 whole entry, looked up): as the sequence (Q96SW2 whole entry) above

Sequence of Protein cereblon (Homo sapiens) (Q96SW2 whole entry): as above

One may read the EC50 as the concentration needed to bring the measured effect to its halfway point. In the case of `Cc1ccc(NC(=O)NCc2ccc3c(c2)CN(C2CCC(=O)NC2=O)C3=O)cc1Cl` (stereo unspecified), in data set [1], the EC50 was 0.1 µM.

The term DC50 denotes the concentration at which degradation of the target reaches its halfway point. Consider `COC(=O)c1nc(NC(=O)Cn2cnc(C)c(C)c2=O)sc1CCc1ccc(Cl)cc1`, for which, in data set [2], the result was inactive. The DC50 in data set [3] was > 10 µM.

In the case of `COC(=O)c1nc(NC(=O)Cn2cnccc2=O)sc1CCc1ccccc1`, in data set [2], the Activity turned out to be 13.8%. The half-maximal degradation concentration (DC50) in [3] is 4 µM.

Take `COC(=O)c1nc(NC(=O)Cn2cnc(C)c(C)c2=O)sc1Cc1ccccc1`: the Activity in [2] is -5.6%. In addition, the DC50 in [3] is > 10 µM.

Consider `CNC(=O)c1nc(NC(=O)Cn2cnc(C)c(C)c2=O)sc1CCc1ccccc1`, for which, in data set [2], the Activity was -9%. In data set [3], the 50% degradation concentration (DC50) was > 10 µM.

In general, GI50 refers to the concentration at which growth is held to half of that of the control. For orientation: Emax means the maximal effect, on the per cent scale that the assay sets. `COC(=O)c1nc(NC(=O)Cn2cnc(C)c(C)c2=O)sc1CCc1ccccc1`: the half-maximal effective concentration (EC50) in [1] came out at 11.4 µM. Further, the concentration for 50% growth inhibition (GI50) at 72 h in [4] worked out at 0.8 µM; in data set [5] it was 18.4 µM; in [7] it was 1.4 µM. For the same molecule, the GI50 was 0.5 µM with Jurkat [6] and 3.2 µM with Jurkat [18]. Also, the RatioGI50 (in the data set with MCF7; in data set [8]; in data set [9]) was 3 throughout. Besides, the result in [10], in data set [11], in data set [12], in [13], in data set [14] and in data set [26] was Active. Also, the outcome in data set [27] and in data set [29] was Active. Further, the DC50 came to 0.127 µM in [15]; 0.0422 µM in data set [16]; 0.2 µM in data set [22]; 45 µM in [23]; 1.2 µM in [3]. Further, the result (in data set [17]; in data set [19]; in data set [20]; with MEF; in data set [28]; in data set [30]) was inactive. The outcome in data set [31] and in data set [32] was inactive. The Activity result is “Dose-dependent-effect” in data set [21] and 47.6% in data set [2]. The Emax was determined as 98.2% in [24] and 31.7% in data set [25].

`COC(=O)c1nc(NC(=O)Cn2cnc(C)c(C)c2=O)sc1CCc1cccc(Cl)c1`: the result in data set [2] was inactive. Besides, the DC50 in data set [3] is > 10 µM.

Take `COC(=O)c1nc(NC(=O)Cn2cncc(C)c2=O)sc1CCc1ccccc1`: in data set [2], the outcome was inactive. Further, the 50% degradation concentration (DC50) in [3] is > 10 µM.

Take `COC(=O)c1nc(NC(=O)Cn2cnc(C)cc2=O)sc1CCc1ccccc1`: the result in [2] was inactive. The 50% degradation concentration (DC50) in data set [3] was > 10 µM.

With `COC(=O)c1nc(NC(=O)Cn2cnc3c(c2=O)CCC3)sc1CCc1ccccc1`, the Activity in data set [2] was -14.4%. Moreover, the 50% degradation concentration (DC50) in data set [3] is > 10 µM.
